Patent publication US6737383B1, “Herbicidal oxadiazolidines” (priority 1999, dated 2004)

Legend:
sugar beet = assay: Test B pre/postemergence sugar beet; type: in vivo, Beta vulgaris; conditions: for Plant response rating, Sugarbeets: Rate 250 g/ha
Method in brief: (§1)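 Herbicidal effect was estimated by eye on a ten-point control scale after plants spent twelve to sixteen days in a greenhouse following soil or foliar treatment. Foliar sprays targeted plants at one to four leaves; all doses were formulated in a non-phytotoxic solvent with surfactant.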

pigweed = assay: Test B pre/postemergence pigweed; type: in vivo, Amaranthus retroflexus
Method in brief: as §1

crabgrass = assay: Test B pre/postemergence crabgrass; type: in vivo, Digitaria sanguinalis
Method in brief: as §1

morningglory = assay: Test B pre/postemergence morningglory; type: in vivo, Ipomoea hederacea
Method in brief: as §1

soybean = assay: Test B pre/postemergence soybean; type: in vivo, Glycine max
Method in brief: as §1

cocklebur = assay: Test B pre/postemergence cocklebur; type: in vivo, Xanthium strumarium
Method in brief: as §1

velvetleaf = assay: Test B pre/postemergence velvetleaf; type: in vivo, Abutilon theophrasti; conditions: for Plant response rating, Velvetleaf: Rate 250 g/ha
Method in brief: as §1

wild oat = assay: Test B pre/postemergence wild oat; type: in vivo, Avena fatua; conditions: for Plant response rating, Wild oats: Rate 250 g/ha
Method in brief: as §1

blackgrass = assay: Test B pre/postemergence blackgrass; type: in vivo, Alopecurus myosuroides
Method in brief: as §1

surinam grass = assay: Test B pre/postemergence surinam grass; type: in vivo, Brachiaria decumbens
Method in brief: as §1

corn = assay: Test B pre/postemergence corn; type: in vivo, Zea mays
Method in brief: as §1

wheat = assay: Test B pre/postemergence wheat; type: in vivo, Triticum aestivum; conditions: for Plant response rating, Wheat: Rate 250 g/ha
Method in brief: as §1

rape = assay: Test B pre/postemergence rape; type: in vivo, Brassica napus
Method in brief: as §1

giant foxtail = assay: Test B pre/postemergence giant foxtail; type: in vivo, Setaria faberii
Method in brief: as §1

bedstraw = assay: Test B pre/postemergence bedstraw; type: in vivo, Galium aparine; conditions: Preemergence
Method in brief: as §1

purple nutsedge = assay: Test B pre/postemergence purple nutsedge; type: in vivo, Cyperus rotundus
Method in brief: as §1

[1] = Postemergence, Rate 62 g/ha, scale 0 to 10, 0 is no effect, 10 is complete control
[2] = Postemergence, Rate 125 g/ha, scale of 0 to 10 where 0 is no effect and 10 is complete control
[3] = Preemergence, Rate 62 g/ha, scale 0 to 10 (0 no effect, 10 complete control)
[4] = Preemergence, Rate 125 g/ha, 0 is no effect, 10 is complete control
[5] = Preemergence, scale of 0 to 10 where 0 is no effect and 10 is complete control
[6] = Preemergence, Rate 500 g/ha, scale 0 (no effect) to 10 (complete control)
[7] = Postemergence, scale 0 to 10, 0 is no effect, 10 is complete control
[8] = Rate 500 g/ha, Postemergence, scale 0 to 10, 0 no effect, 10 complete control
[9] = Preemergence, Rate 125 g/ha, scale 0 to 10 (0 no effect, 10 complete control)
[10] = Preemergence, Rate 250 g/ha, scale of 0 to 10 where 0 is no effect and 10 is complete control
[11] = Rate 250 g/ha, Postemergence, scale 0 to 10, 0 is no effect, 10 is complete control
[12] = Postemergence, Rate 250 g/ha, scale 0 to 10, 0 no effect, 10 complete control

CCCn1c(=O)on(C(=O)N(c2ccccc2)C(C)C)c1=O [Compound 92] was tested, and the “Sugarbeets plant response rating” value (sugar beet; [1]) was 1, the “Sugarbeets plant response rating” value (sugar beet; [2]) was 4 and the “Sugarbeets plant response rating” value (sugar beet; [3]) was 2. For the same molecule, the “Sugarbeets plant response rating (0 to 10 scale)” value (sugar beet; [4]) was 6, the “Plant response rating, Sugarbeets” value (sugar beet; [5]) was 8 and the “Sugarbeets plant response rating” value (sugar beet; [6]) was 9. The “Plant response rating, Sugarbeets” value (sugar beet; [7]) was 6, the “Sugarbeets plant response rating” value (sugar beet; [8]) was 6 and the “Redroot pigweed plant response rating” value (pigweed; [1]) was 2. The “Redroot pigweed plant response rating” value (pigweed; [2]) was 3, the “Redroot pigweed plant response rating” value (pigweed; [3]) was 2 and the “Plant response rating, Redroot pigweed” value (pigweed; [9]) was 7. The “Plant response rating, Redroot pigweed” value (pigweed; [10]) was 9, the “Redroot pigweed plant response rating” value (pigweed; [6]) was 10 and the “Plant response rating, Redroot pigweed” value (pigweed; [11]) was 4. For the same molecule, the “Redroot pigweed plant response rating” value (pigweed; [8]) was 5, the “Crabgrass plant response rating” value (crabgrass; [1]) was 6 and the “Crabgrass plant response rating” value (crabgrass; [2]) was 8. For the same molecule, the “Crabgrass plant response rating” value (crabgrass; [12]) was 9, the “Crabgrass plant response rating” value (crabgrass; [3]) was 8 and the “Plant response rating, Crabgrass” value (crabgrass; [9]) was 10. The “Plant response rating, Crabgrass” value (crabgrass; [10]) was 8, the “Crabgrass plant response rating” value (crabgrass; [6]) was 10 and the “Crabgrass plant response rating” value (crabgrass; [8]) was 9. For the same molecule, the “Morningglory plant response rating” value (morningglory; [1]) was 7, the “Morningglory plant response rating” value (morningglory; [2]) was 8 and the “Morningglory plant response rating” value (morningglory; [12]) was 10. For the same molecule, the “Morningglory plant response rating” value (morningglory; [3]) was 0, the “Plant response rating, Morningglory” value (morningglory; [9]) was 0 and the “Plant response rating, Morningglory” value (morningglory; [10]) was 0. The “Morningglory plant response rating” value (morningglory; [6]) was 3, the “Morningglory plant response rating” value (morningglory; [8]) was 10 and the “Soybean plant response rating” value (soybean; [1]) was 3. The “Soybean plant response rating” value (soybean; [2]) was 3, the “Soybean plant response rating” value (soybean; [3]) was 0 and the “Plant response rating, Soybean” value (soybean; [9]) was 3. For the same molecule, the “Plant response rating, Soybean” value (soybean; [10]) was 4, the “Soybean plant response rating” value (soybean; [6]) was 9 and the “Plant response rating, Soybean” value (soybean; [11]) was 3. The “Soybean plant response rating” value (soybean; [8]) was 5, the “Cocklebur plant response rating” value (cocklebur; [1]) was 0 and the “Cocklebur plant response rating” value (cocklebur; [2]) was 1. For the same molecule, the “Cocklebur plant response rating” value (cocklebur; [12]) was 2, the “Cocklebur plant response rating” value (cocklebur; [3]) was 0 and the “Plant response rating, Cocklebur” value (cocklebur; [10]) was 0. For the same molecule, the “Cocklebur plant response rating” value (cocklebur; [8]) was 3, the “Velvetleaf plant response rating” value (velvetleaf; [1]) was 0 and the “Velvetleaf plant response rating” value (velvetleaf; [2]) was 0. For the same molecule, the “Velvetleaf plant response rating” value (velvetleaf; [3]) was 4, the “Velvetleaf plant response rating (0 to 10 scale)” value (velvetleaf; [4]) was 6 and the “Plant response rating, Velvetleaf” value (velvetleaf; [5]) was 6. The “Velvetleaf plant response rating” value (velvetleaf; [6]) was 8, the “Plant response rating, Velvetleaf” value (velvetleaf; [7]) was 0 and the “Wild oats plant response rating” value (wild oat; [1]) was 0. The “Wild oats plant response rating” value (wild oat; [2]) was 1, the “Wild oats plant response rating” value (wild oat; [3]) was 7 and the “Wild oats plant response rating (0 to 10 scale)” value (wild oat; [4]) was 8. The “Plant response rating, Wild oats” value (wild oat; [5]) was 9, the “Wild oats plant response rating” value (wild oat; [6]) was 10 and the “Plant response rating, Wild oats” value (wild oat; [7]) was 1. For the same molecule, the “Wild oats plant response rating” value (wild oat; [8]) was 5, the “Blackgrass plant response rating” value (blackgrass; [1]) was 7 and the “Blackgrass plant response rating” value (blackgrass; [2]) was 7. For the same molecule, the “Blackgrass plant response rating” value (blackgrass; [12]) was 7, the “Blackgrass plant response rating” value (blackgrass; [3]) was 9 and the “Plant response rating, Blackgrass” value (blackgrass; [9]) was 10. The “Plant response rating, Blackgrass” value (blackgrass; [10]) was 10, the “Blackgrass plant response rating” value (blackgrass; [6]) was 10 and the “Blackgrass plant response rating” value (blackgrass; [8]) was 8. The “B. signalgrass plant response rating” value (surinam grass; [1]) was 3, the “B. signalgrass plant response rating” value (surinam grass; [12]) was 7 and the “B. signalgrass plant response rating” value (surinam grass; [3]) was 10. The “Plant response rating, B. signalgrass” value (surinam grass; [10]) was 10, the “B. signalgrass plant response rating” value (surinam grass; Rate 125 g/ha, Postemergence, scale 0 to 10, 0 no effect, 10 complete control) was 5 and the “B. signalgrass plant response rating” value (surinam grass; Rate 500 g/ha, Postemergence, scale of 0 to 10 where 0 is no effect and 10 is complete control) was 7. For the same molecule, the “Corn plant response rating” value (corn; [1]) was 0, the “Corn plant response rating” value (corn; [2]) was 0 and the “Corn plant response rating” value (corn; [12]) was 0. For the same molecule, the “Corn plant response rating” value (corn; [3]) was 0, the “Plant response rating, Corn” value (corn; [9]) was 2 and the “Plant response rating, Corn” value (corn; [10]) was 5. The “Corn plant response rating” value (corn; [6]) was 9, the “Corn plant response rating” value (corn; [8]) was 4 and the “Wheat plant response rating” value (wheat; [1]) was 0. For the same molecule, the “Wheat plant response rating” value (wheat; [2]) was 2, the “Wheat plant response rating” value (wheat; [3]) was 3 and the “Wheat plant response rating (0 to 10 scale)” value (wheat; [4]) was 6. The “Plant response rating, Wheat” value (wheat; [5]) was 7, the “Wheat plant response rating” value (wheat; [6]) was 7 and the “Plant response rating, Wheat” value (wheat; [7]) was 5. The “Wheat plant response rating” value (wheat; [8]) was 6, the “Rape plant response rating” value (rape; [1]) was 2 and the “Rape plant response rating” value (rape; [2]) was 3. The “Rape plant response rating” value (rape; [12]) was 4, the “Rape plant response rating” value (rape; [3]) was 4 and the “Plant response rating, Rape” value (rape; [9]) was 9. The “Plant response rating, Rape” value (rape; [10]) was 10, the “Rape plant response rating” value (rape; [6]) was 10 and the “Rape plant response rating” value (rape; [8]) was 6. The “Giant foxtail plant response rating” value (giant foxtail; [1]) was 8, the “Giant foxtail plant response rating” value (giant foxtail; [2]) was 8 and the “Giant foxtail plant response rating” value (giant foxtail; [12]) was 9. The “Giant foxtail plant response rating” value (giant foxtail; [3]) was 10, the “Plant response rating, Giant foxtail” value (giant foxtail; [9]) was 10 and the “Plant response rating, Giant foxtail” value (giant foxtail; [10]) was 10. The “Giant foxtail plant response rating” value (giant foxtail; [6]) was 10, the “Giant foxtail plant response rating” value (giant foxtail; [8]) was 9 and the “Bedstraw plant response rating” value (bedstraw; Rate 62 g/ha, scale 0 to 10 (0 no effect, 10 complete control)) was 0. The “Plant response rating, Bedstraw” value (bedstraw; Rate 125 g/ha, scale 0 to 10 (0 no effect, 10 complete control)) was 0, the “Plant response rating, Bedstraw” value (bedstraw; Rate 250 g/ha, scale of 0 to 10 where 0 is no effect and 10 is complete control) was 0 and the “Bedstraw plant response rating” value (bedstraw; Rate 500 g/ha, scale 0 (no effect) to 10 (complete control)) was 1. For the same molecule, the “Nutsedge plant response rating” value (purple nutsedge; [1]) was 0, the “Nutsedge plant response rating” value (purple nutsedge; [2]) was 0 and the “Nutsedge plant response rating” value (purple nutsedge; [12]) was 0. The “Nutsedge plant response rating” value (purple nutsedge; [3]) was 0, the “Plant response rating, Nutsedge” value (purple nutsedge; [9]) was 0 and the “Plant response rating, Nutsedge” value (purple nutsedge; [10]) was 0. The “Nutsedge plant response rating” value (purple nutsedge; [6]) was 0 and the “Nutsedge plant response rating” value (purple nutsedge; [8]) was 2.
